Test results taken from the supplement of paper PMC10307832.

Key:
Experiment in all cases: relative viability (nuclei count vs DMSO), 5 days (fraction); higher = more cells survive
[1] = compound: C=CC(=O)N1CCC[C@@H](n2nc(-c3ccc(Oc4ccccc4)cc3)c3c(N)ncnc32)C1 [Ibrutinib] + Cc1nc(NC(=O)N2CCC[C@H]2C(N)=O)sc1-c1ccnc(C(C)(C)C(F)(F)F)c1 [Alpelisib] (partner 2 µM)
Summary of the method: (§1)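 Lung cancer cell lines, seeded in 1536-well plates, were treated the following day by pin tool with a single drug or with five library-drug doses (not always all listed) in √10 steps on top of a fixed anchor-drug dose. Cells were fixed and nuclei stained in one step after 5 days, and nuclei were counted. Relative viability is the nuclei count for treated wells divided by that for vehicle wells, reported as medians of duplicate plates.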

[2] = compound: C=CCc1cccc(/C=N/NC(=O)CN2CCN(Cc3ccccc3)CC2)c1O [PAC-1] + CS(=O)(=O)N1CCN(Cc2cc3nc(-c4cccc5[nH]ncc45)nc(N4CCOCC4)c3s2)CC1 [Pictilisib] (partner 1 µM)
Summary of the method: as §1

[3] = compound: C=CC(=O)Nc1cc(-n2c(=O)ccc3cnc4ccc(-c5ccc(NS(C)(=O)=O)cc5)cc4c32)ccc1C [BMX-IN-1] + O=C(c1cc(Cc2n[nH]c(=O)c3ccccc23)ccc1F)N1CCN(C(=O)C2CC2)CC1 [Olaparib] (partner 8 µM)
Summary of the method: as §1

[4] = compound: C=CC(=O)Nc1cc(-n2c(=O)ccc3cnc4ccc(-c5ccc(NS(C)(=O)=O)cc5)cc4c32)ccc1C [BMX-IN-1] + Nc1nc2[nH]cc(CCc3ccc(C(=O)N[C@@H](CCC(=O)O)C(=O)O)cc3)c2c(=O)[nH]1 [Pemetrexed] (partner 0.2 µM)
Summary of the method: as §1

Cell Line: SK-MES-1
- relative viability ([1]; first compound 0.005 µM): 0.441
- relative viability ([1]; first compound 0.01581 µM): 0.842
- relative viability ([1]; first compound 0.05 µM): 0.599
- relative viability ([1]; first compound 0.1581 µM): 1
- relative viability ([1]; first compound 0.5 µM): 0.379
- relative viability ([2]; first compound 0.02 µM): 0.336
- relative viability ([2]; first compound 0.06325 µM): 0.297
- relative viability ([2]; first compound 0.2 µM): 0.336
- relative viability ([2]; first compound 2 µM): 0.322
- relative viability ([3]; first compound 0.02 µM): 0.754
- relative viability ([3]; first compound 0.2 µM): 0.811
- relative viability ([3]; first compound 0.6325 µM): 0.961
- relative viability ([3]; first compound 2 µM): 0.625
- relative viability ([4]; first compound 0.02 µM): 1.11
- relative viability ([4]; first compound 0.2 µM): 1.11
- relative viability ([4]; first compound 0.6325 µM): 1.03
- relative viability ([4]; first compound 2 µM): 0.859
